Data as given in patent publication US8119624B2, “Fused phenyl amido heterocyclic compounds” (Pfizer Inc., priority 2006, dated 2012).

Target: T1, Full-length glucokinase (beta cell isoform) (Homo sapiens, UniProt P35557)
T1 construct: Full-length glucokinase (beta cell isoform) was His-tagged at N-terminus; His tag (N); made in house
T1 sequence (P35557 1-465): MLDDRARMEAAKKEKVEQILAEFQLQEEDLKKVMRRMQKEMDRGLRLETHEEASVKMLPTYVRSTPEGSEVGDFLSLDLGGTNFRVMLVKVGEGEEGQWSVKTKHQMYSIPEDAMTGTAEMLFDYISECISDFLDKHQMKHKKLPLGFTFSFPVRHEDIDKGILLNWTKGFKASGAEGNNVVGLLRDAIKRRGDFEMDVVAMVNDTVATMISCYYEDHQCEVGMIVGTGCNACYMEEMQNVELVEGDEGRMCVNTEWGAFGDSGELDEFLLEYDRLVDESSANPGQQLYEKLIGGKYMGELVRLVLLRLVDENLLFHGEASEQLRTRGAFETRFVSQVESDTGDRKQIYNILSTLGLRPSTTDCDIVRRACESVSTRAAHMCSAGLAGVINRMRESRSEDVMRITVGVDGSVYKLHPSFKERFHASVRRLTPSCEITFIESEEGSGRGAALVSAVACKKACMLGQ
Assay: Glucokinase biochemical assay (PK/LDH-coupled, NADH depletion at 340 nm): % activation, EC50, % max activation
Details: 5 mM glucose; for activation at 10 µM: 10 uM compound, % Activation=(Va/Vo−1)×100, read-out: % Activation at 10 uM; for EC50: GK activation, read-out: EC50; for Emax: fitted maximum activation, read-out: % Max Activation
In short: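 N-terminally His-tagged full-length human beta-cell glucokinase, room temperature, 5 mM glucose, 1 mM ATP, PK/LDH-coupled with 0.7 mM NADH, 1% DMSO final. Initial velocity from the 200–900 s slope of A340 decline. % activation = (Va/Vo−1)×100, measured across compound concentrations.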

Row | Structure (SMILES) | activation at 10 µM | EC50 | Emax
1 | CN(C)C(=O)c1ccc(Oc2cc(C(=O)Nc3ccn(C)n3)cc3c2CC(C)(C)O3)c(F)c1 [Example 46, 4-(4-Dimethylcarbamoyl-2-fluoro-phenoxy)-2,2-dimethyl-2,3-dihydro-benzofuran-6-carboxylic acid(1-methyl-1H-pyrazol-3-yl)-amide] | 118% | 310 nM | 138%
2 | Cn1ccc(NC(=O)c2cc(Oc3ccc(C(=O)N4CCOCC4)cc3)c3c(c2)OC(C)(C)C3)n1 [Example 47, 2,2-Dimethyl-4-[4-(morpholine-4-carbonyl)-phenoxy]-2,3-dihydro-benzofuran-6-carboxylic acid(1-methyl-1H-pyrazol-3-yl)-amide] | 140% | 1050 nM | 156%
3 | Cn1ccc(NC(=O)c2cc(Oc3ccc(C(=O)N4CCCC4)cc3)c3c(c2)OC(C)(C)C3)n1 [Example 48, 2,2-Dimethyl-4-[4-(pyrrolidine-1-carbonyl)-phenoxy]-2,3-dihydro-benzofuran-6-carboxylic acid(1-methyl-1H-pyrazol-3-yl)-amide] | 130% | 142 nM | 114%
4 | CN(C)C1CN(C(=O)c2ccc(Oc3cc(C(=O)Nc4ccn(C)n4)cc4c3CC(C)(C)O4)cc2)C1 [Example 49, 4-[4-(3-Dimethylamino-azetidine-1-carbonyl)-phenoxy]-2,2-dimethyl-2,3-dihydro-benzofuran-6-carboxylic acid(1-methyl-1H-pyrazol-3-yl)-amide] | 133% | 455 nM | 147%
5 | Cn1ccc(NC(=O)c2cc(Oc3ccc(C(=O)N4CC(F)(F)C4)cc3)c3c(c2)OC(C)(C)C3)n1 [Example 50, 4-[4-(3,3-Difluoro-azetidine-1-carbonyl)-phenoxy]-2,2-dimethyl-2,3-dihydro-benzofuran-6-carboxylic acid(1-methyl-1H-pyrazol-3-yl)-amide] | 146% | 564 nM | 149%
6 | Cn1ccc(NC(=O)c2cc(Oc3ccc(C(=O)N4CCOCC4)c(F)c3)c3c(c2)OC(C)(C)C3)n1 [Example 51, 4-[3-Fluoro-4-(morpholine-4-carbonyl)-phenoxy]-2,2-dimethyl-2,3-dihydro-benzofuran-6-carboxylic acid(1-methyl-1H-pyrazol-3-yl)-amide] | 129% | 250 nM | 130%
7 | Cn1ccc(NC(=O)c2cc(Oc3ccc(C(=O)N4CC(F)(F)C4)c(F)c3)c3c(c2)OC(C)(C)C3)n1 [Example 52, 4-[4-(3,3-Difluoro-azetidine-1-carbonyl)-3-fluoro-phenoxy]-2,2-dimethyl-2,3-dihydro-benzofuran-6-carboxylic acid(1-methyl-1H-pyrazol-3-yl)-amide] | 136% | 280 nM | 151%
8 | CN1CCN(C(=O)c2ccc(Oc3cc(C(=O)Nc4ccn(C)n4)cc4c3CC(C)(C)O4)cc2F)CC1 [Example 53, 4-[3-Fluoro-4-(4-methyl-piperazine-1-carbonyl)-phenoxy]-2,2-dimethyl-2,3-dihydro-benzofuran-6-carboxylic acid(1-methyl-1H-pyrazol-3-yl)-amide] | 125% | 650 nM | 135%
9 | CN(C)C(=O)c1ccc(Oc2cc(C(=O)Nc3ccn(C)n3)cc3c2CC(C)(C)O3)cc1F [Example 54, 4-(4-Dimethylcarbamoyl-3-fluoro-phenoxy)-2,2-dimethyl-2,3-dihydro-benzofuran-6-carboxylic acid(1-methyl-1H-pyrazol-3-yl)-amide] | 83.3% | 80.7 nM | 101%
10 | Cn1ccc(NC(=O)c2cc(Oc3ccc(C(=O)N4CC(O)C4)c(F)c3)c3c(c2)OC(C)(C)C3)n1 [Example 55, 4-[3-Fluoro-4-(3-hydroxy-azetidine-1-carbonyl)-phenoxy]-2,2-dimethyl-2,3-dihydro-benzofuran-6-carboxylic acid(1-methyl-1H-pyrazol-3-yl)-amide] | 143% | 680 nM | 129%
11 | Cn1ccc(NC(=O)c2cc(Oc3ccc(C(=O)N4CCCC4)c(F)c3)c3c(c2)OC(C)(C)C3)n1 [Example 56, 4-[3-Fluoro-4-(pyrrolidine-1-carbonyl)-phenoxy]-2,2-dimethyl-2,3-dihydro-benzofuran-6-carboxylic acid(1-methyl-1H-pyrazol-3-yl)-amide] | 107% | 50.7 nM | 108%
12 | CN(C)C1CN(C(=O)c2ccc(Oc3cc(C(=O)Nc4ccn(C)n4)cc4c3CC(C)(C)O4)cc2F)C1 [Example 57, 4-[4-(3-Dimethylamino-azetidine-1-carbonyl)-3-fluoro-phenoxy]-2,2-dimethyl-2,3-dihydro-benzofuran-6-carboxylic acid(1-methyl-1H-pyrazol-3-yl)-amide] | 131% | 643 nM | 148%
13 | Cn1ccc(NC(=O)c2cc(Oc3ccc(C(=O)N4CC[C@@H](F)C4)c(F)c3)c3c(c2)OC(C)(C)C3)n1 [Example 58, 4-[3-Fluoro-4-((R)-3-fluoro-pyrrolidine-1-carbonyl)-phenoxy]-2,2-dimethyl-2,3-dihydro-benzofuran-6-carboxylic acid(1-methyl-1H-pyrazol-3-yl)-amide] | 55.3% | 75 nM | 88%
14 | CO[C@@H]1CCN(C(=O)c2ccc(Oc3cc(C(=O)Nc4ccn(C)n4)cc4c3CC(C)(C)O4)cc2F)C1 [Example 59, 4-[3-Fluoro-4-((R)-3-methoxy-pyrrolidine-1-carbonyl)-phenoxy]-2,2-dimethyl-2,3-dihydro-benzofuran-6-carboxylic acid(1-methyl-1H-pyrazol-3-yl)-amide] | 172% | 250 nM | 168%
15 | CO[C@H]1CCN(C(=O)c2ccc(Oc3cc(C(=O)Nc4ccn(C)n4)cc4c3CC(C)(C)O4)cc2F)C1 [Example 60, 4-[3-Fluoro-4-((S)-3-methoxy-pyrrolidine-1-carbonyl)-phenoxy]-2,2-dimethyl-2,3-dihydro-benzofuran-6-carboxylic acid(1-methyl-1H-pyrazol-3-yl)-amide] | 172% | 270 nM | 167%
16 | Cn1ccc(NC(=O)c2cc(Oc3ccc(C(=O)N4CCCCC4)c(F)c3)c3c(c2)OC(C)(C)C3)n1 [Example 61, 4-[3-Fluoro-4-(piperidine-1-carbonyl)-phenoxy]-2,2-dimethyl-2,3-dihydro-benzofuran-6-carboxylic acid(1-methyl-1H-pyrazol-3-yl)-amide] | 109% | 100 nM | 107%
17 | Cn1ccc(NC(=O)c2cc(Oc3ccc(C(=O)N4CC[C@H](O)C4)c(F)c3)c3c(c2)OC(C)(C)C3)n1 [Example 62, 4-[3-Fluoro-4-((S)-3-hydroxy-pyrrolidine-1-carbonyl)-phenoxy]-2,2-dimethyl-2,3-dihydro-benzofuran-6-carboxylic acid(1-methyl-1H-pyrazol-3-yl)-amide] | 153% | 700 nM | 165%
18 | Cn1ccc(NC(=O)c2cc(Oc3ccc(C(=O)N4CC[C@H](F)C4)c(F)c3)c3c(c2)OC(C)(C)C3)n1 [Example 63, 4-[3-Fluoro-4-((S)-3-fluoro-pyrrolidine-1-carbonyl)-phenoxy]-2,2-dimethyl-2,3-dihydro-benzofuran-6-carboxylic acid(1-methyl-1H-pyrazol-3-yl)-amide] | 170% | 230 nM | 158%
19 | COCCN(C)C(=O)c1ccc(Oc2cc(C(=O)Nc3ccn(C)n3)cc3c2CC(C)(C)O3)cc1F [Example 64, 4-{3-Fluoro-4-[(2-methoxy-ethyl)-methyl-carbamoyl]-phenoxy}-2,2-dimethyl-2,3-dihydro-benzofuran-6-carboxylic acid(1-methyl-1H-pyrazol-3-yl)-amide] | 172% | 270 nM | 158%
20 | Cn1ccc(NC(=O)c2cc(Oc3ccc(C(=O)Nc4ccn(C)n4)c(F)c3)c3c(c2)OC(C)(C)C3)n1 [Example 65, 4-[3-Fluoro-4-(1-methyl-1H-pyrazol-3-ylcarbamoyl)-phenoxy]-2,2-dimethyl-2,3-dihydro-benzofuran-6-carboxylic acid(1-methyl-1H-pyrazol-3-yl)-amide] | 147% | 240 nM | 141%
21 | CN(CCO)C(=O)c1ccc(Oc2cc(C(=O)Nc3ccn(C)n3)cc3c2CC(C)(C)O3)cc1F [Example 66, 4-{3-Fluoro-4-[(2-hydroxy-ethyl)-methyl-carbamoyl]-phenoxy}-2,2-dimethyl-2,3-dihydro-benzofuran-6-carboxylic acid(1-methyl-1H-pyrazol-3-yl)-amide] | 149% | 410 nM | 168%
22 | CN(CC#N)C(=O)c1ccc(Oc2cc(C(=O)Nc3ccn(C)n3)cc3c2CC(C)(C)O3)cc1F [Example 67, 4-[4-(Cyanomethyl-methyl-carbamoyl)-3-fluoro-phenoxy]-2,2-dimethyl-2,3-dihydro-benzofuran-6-carboxylic acid(1-methyl-1H-pyrazol-3-yl)-amide] | 131% | 66 nM | 130%
